Measured values reported in ChEMBL document CHEMBL2413076, “Synthesis and biological evaluation of ursolic acid-triazolyl derivatives as potential anti-cancer agents” (Eur J Med Chem, 2013).

Assays:
[1] = Growth inhibition of human FR2 cells after 48 hrs by sulforhodamine-B assay; format: cell-based; details: FR2, 48 h
[2] = tested on: THP-1; assay: Growth inhibition of human THP1 cells after 48 hrs by sulforhodamine-B assay; format: functional, cell-based; details: THP-1, 48 h
[3] = tested on: MCF7; assay: Growth inhibition of human MCF7 cells after 48 hrs by sulforhodamine-B assay; format: functional, cell-based; details: MCF7, 48 h
[4] = tested on: HCT-116; assay: Growth inhibition of human HCT116 cells after 48 hrs by sulforhodamine-B assay; format: functional, cell-based; details: HCT-116, 48 h
[5] = tested on: A549; assay: Growth inhibition of human A549 cells after 48 hrs by sulforhodamine-B assay; format: functional, cell-based; details: A549, 48 h
[6] = Growth inhibition of human FR2 cells assessed as dead cells at 10 uM after 48 hrs by sulforhodamine-B assay relative to control; format: cell-based; details: read-out: GI
[7] = tested on: THP-1; assay: Growth inhibition of human THP1 cells assessed as dead cells at 10 uM after 48 hrs by sulforhodamine-B assay relative to control; format: functional; details: THP-1, 48 h, read-out: GI
[8] = tested on: HCT-116; assay: Growth inhibition of human HCT116 cells assessed as dead cells at 10 uM after 48 hrs by sulforhodamine-B assay relative to control; format: functional; details: HCT-116, 48 h, read-out: GI
[9] = tested on: MCF7; assay: Growth inhibition of human MCF7 cells assessed as dead cells at 10 uM after 48 hrs by sulforhodamine-B assay relative to control; format: functional; details: MCF7, 48 h, read-out: GI
[10] = tested on: A549; assay: Growth inhibition of human A549 cells assessed as dead cells at 10 uM after 48 hrs by sulforhodamine-B assay relative to control; format: functional; details: A549, 48 h, read-out: GI
[11] = Growth inhibition of human FR2 cells assessed as dead cells at 50 uM after 48 hrs by sulforhodamine-B assay relative to control; format: cell-based; details: read-out: GI
[12] = tested on: A549; assay: Growth inhibition of human A549 cells assessed as dead cells at 50 uM after 48 hrs by sulforhodamine-B assay relative to control; format: functional; details: A549, 48 h, read-out: GI
[13] = tested on: MCF7; assay: Growth inhibition of human MCF7 cells assessed as dead cells at 50 uM after 48 hrs by sulforhodamine-B assay relative to control; format: functional; details: MCF7, 48 h, read-out: GI
[14] = tested on: HCT-116; assay: Growth inhibition of human HCT116 cells assessed as dead cells at 50 uM after 48 hrs by sulforhodamine-B assay relative to control; format: functional; details: HCT-116, 48 h, read-out: GI
[15] = tested on: THP-1; assay: Growth inhibition of human THP1 cells assessed as dead cells at 50 uM after 48 hrs by sulforhodamine-B assay relative to control; format: functional; details: THP-1, 48 h, read-out: GI

SMILES | IC50 [1] | IC50 [2] | IC50 [3] | IC50 [4] | IC50 [5] | inhibition at 48 h, 10 µM [6] | inhibition of growth at 10 µM [7] | inhibition of growth at 10 µM [8] | inhibition of growth at 10 µM [9] | inhibition of growth at 10 µM [10] | inhibition at 48 h, 50 µM [11] | inhibition of growth at 50 µM [12] | inhibition of growth at 50 µM [13] | inhibition of growth at 50 µM [14] | inhibition of growth at 50 µM [15]
C[C@H]1[C@H](C)CC[C@]2(C(=O)OCc3cn(-c4ccc(CC#N)cc4)nn3)CC[C@]3(C)C(=CC[C@@H]4[C@@]5(C)CCC(=O)C(C)(C)[C@@H]5CC[C@]43C)[C@H]12 | 46 µM | 37 µM | 79 µM | 19 µM | > 100 µM | 14% | 32% | 44% | 17% | 13% | 46% | 26% | 34% | 67% | 55%
C[C@H]1[C@H](C)CC[C@]2(C(=O)OCc3cn(-c4ccc(Cl)cc4)nn3)CC[C@]3(C)C(=CC[C@@H]4[C@@]5(C)CCC(=O)C(C)(C)[C@@H]5CC[C@]43C)[C@H]12 | – | – | – | – | – | – | – | – | – | – | – | 26% | 52% | 49% | 9%
C[C@H]1[C@H](C)CC[C@]2(C(=O)OCc3cn(-c4cccc5ccccc45)nn3)CC[C@]3(C)C(=CC[C@@H]4[C@@]5(C)CCC(=O)C(C)(C)[C@@H]5CC[C@]43C)[C@H]12 | – | – | – | – | – | – | 47% | 2% | 40% | 27% | – | 50% | 80% | 76% | 75%
C[C@H]1[C@H](C)CC[C@]2(C(=O)OCc3cn(-c4ccccc4C(F)(F)F)nn3)CC[C@]3(C)C(=CC[C@@H]4[C@@]5(C)CCC(=O)C(C)(C)[C@@H]5CC[C@]43C)[C@H]12 | – | – | – | – | – | – | – | – | – | – | – | 46% | 4% | 23% | 73%
C[C@H]1[C@H](C)CC[C@]2(C(=O)OCc3cn(-c4ccc(I)cc4)nn3)CC[C@]3(C)C(=CC[C@@H]4[C@@]5(C)CCC(=O)C(C)(C)[C@@H]5CC[C@]43C)[C@H]12 | – | – | – | – | – | – | – | – | – | – | – | 2% | 82% | 8% | 1%
C[C@H]1[C@H](C)CC[C@]2(C(=O)OCc3cn(-c4cccc(Br)c4)nn3)CC[C@]3(C)C(=CC[C@@H]4[C@@]5(C)CCC(=O)C(C)(C)[C@@H]5CC[C@]43C)[C@H]12 | – | – | – | – | – | – | – | – | – | – | – | 16% | 3% | 10% | 32%
C[C@H]1[C@H](C)CC[C@]2(C(=O)OCc3cn(-c4ccc(F)cc4)nn3)CC[C@]3(C)C(=CC[C@@H]4[C@@]5(C)CCC(=O)C(C)(C)[C@@H]5CC[C@]43C)[C@H]12 | – | – | – | – | – | – | – | – | – | – | – | 3% | 4% | 3% | 2%
C[C@H]1[C@H](C)CC[C@]2(C(=O)OCc3cn(-c4ccccc4F)nn3)CC[C@]3(C)C(=CC[C@@H]4[C@@]5(C)CCC(=O)C(C)(C)[C@@H]5CC[C@]43C)[C@H]12 | – | – | – | – | – | – | – | – | – | – | – | 18% | 15% | 12% | 49%
C[C@H]1[C@H](C)CC[C@]2(C(=O)OCc3cn(-c4ccc(C(F)(F)F)cc4)nn3)CC[C@]3(C)C(=CC[C@@H]4[C@@]5(C)CCC(=O)C(C)(C)[C@@H]5CC[C@]43C)[C@H]12 | – | – | – | – | – | – | – | – | – | – | – | 30% | 3% | 16% | 27%
